Among the data in patent US9656988B2 (Pharmacyclics LLC, priority 2013, dated 2017) are IC50 values, retold here.

Like-named read-outs stand apart in the source and are kept apart here.

The target in the assay is BTK (Homo sapiens (Human), UniProt Q06187). Kind of assay: Btk in vitro inhibitory activity (one of Method A TR-FRET, Method B electrophoretic mobility shift, Method C radiometric filter binding). Format: biochemical. Background: Mobility shift assays separate free from complexed probe on a gel.
Chain of BTK (Q06187 whole entry): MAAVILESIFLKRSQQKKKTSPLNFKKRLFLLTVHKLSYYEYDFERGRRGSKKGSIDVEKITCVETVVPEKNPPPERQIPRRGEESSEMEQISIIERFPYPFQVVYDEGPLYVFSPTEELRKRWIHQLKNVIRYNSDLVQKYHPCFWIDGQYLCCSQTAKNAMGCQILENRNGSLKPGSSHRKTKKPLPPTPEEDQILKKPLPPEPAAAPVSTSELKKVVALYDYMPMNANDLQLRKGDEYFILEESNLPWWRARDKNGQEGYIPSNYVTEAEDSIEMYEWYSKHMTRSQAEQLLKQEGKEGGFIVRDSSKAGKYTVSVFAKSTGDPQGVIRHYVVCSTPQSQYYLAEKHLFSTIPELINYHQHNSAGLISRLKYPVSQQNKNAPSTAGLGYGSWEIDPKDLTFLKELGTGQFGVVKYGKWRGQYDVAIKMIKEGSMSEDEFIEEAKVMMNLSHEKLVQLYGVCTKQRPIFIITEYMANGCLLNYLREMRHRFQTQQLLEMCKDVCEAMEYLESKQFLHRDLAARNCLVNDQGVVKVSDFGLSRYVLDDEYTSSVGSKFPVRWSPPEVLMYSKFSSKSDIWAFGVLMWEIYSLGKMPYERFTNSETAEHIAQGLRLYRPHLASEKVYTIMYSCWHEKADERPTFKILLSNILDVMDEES
The mark [1] stands for this setting: determined using one of the methods of Example 355a, 355b and 355c, read-out: BTK IC50.

In the case of `CCCOc1ccc(C(=O)N[C@@H]2CCCN(c3nnc(C(N)=O)c(Nc4ccc(C(=O)N5CCOCC5)cc4)n3)C2)cc1` [Example 89, (R)-5-(4-(morpholine-4-carbonyl)phenylamino)-3-(3-(4-propoxybenzamido)piperidin-1-yl)-1,2,4-triazine-6-carboxamide], the IC50 was under 10 nM under setting [1] and under 10 nM (read-out: Btk (IC50)).

On to `CC(C)Oc1ccc(C(=O)N[C@@H]2CCCN(c3nnc(C(N)=O)c(Nc4ccc(C(=O)N5CCOCC5)cc4)n3)C2)cc1` [Example 90, (R)-5-(4-(morpholine-4-carbonyl)phenylamino)-3-(3-(4-isopropoxybenzamido)piperidin-1-yl)-1,2,4-triazine-6-carboxamide], for which the IC50 under setting [1] was in the range of 10 to 100 nM and the IC50 (read-out: Btk (IC50)) fell in the range of 10 to 100 nM.

For `Cc1cc(C(=O)N[C@@H]2CCCN(c3nnc(C(N)=O)c(Nc4ccc(C(=O)N5CCOCC5)cc4)n3)C2)no1` [Example 91, (R)—N-(1-(6-carbamoyl-5-(4-(morpholine-4-carbonyl)phenylamino)-1,2,4-triazin-3-yl)piperidin-3-yl)-5-methylisoxazole-3-carboxamide], the IC50 (Btk (IC50)) lay in the range of 10 to 100 nM and the IC50 under setting [1] lay in the range of 10 to 100 nM.

Consider `Cc1ncc(C(=O)N[C@@H]2CCCN(c3nnc(C(N)=O)c(Nc4ccc(C(=O)N5CCOCC5)cc4)n3)C2)s1` [Example 93, (R)—N-(1-(6-carbamoyl-5-(4-(morpholine-4-carbonyl)phenylamino)-1,2,4-triazin-3-yl)piperidin-3-yl)-2-methylthiazole-5-carboxamide], for which the half-inhibitory concentration (IC50) (read-out: Btk (IC50)) is under 10 nM.

As for `NC(=O)c1nnc(N2CCC[C@@H](NC(=O)c3nc4ccccc4s3)C2)nc1Nc1ccc(C(=O)N2CCOCC2)cc1` [Example 94, (R)—N-(1-(6-carbamoyl-5-(4-(morpholine-4-carbonyl)phenylamino)-1,2,4-triazin-3-yl)piperidin-3-yl)benzo[d]thiazole-2-carboxamide], the IC50 (read-out: Btk (IC50)) is under 10 nM.

Regarding `NC(=O)c1nnc(N2CCC[C@@H](NC(=O)c3cc(C4CC4)on3)C2)nc1Nc1ccc(C(=O)N2CCOCC2)cc1` [Example 95, (R)—N-(1-(6-carbamoyl-5-(4-(morpholine-4-carbonyl)phenylamino)-1,2,4-triazin-3-yl)piperidin-3-yl)-5-cyclopropylisoxazole-3-carboxamide], the IC50 was in the range of 10 to 100 nM under setting [1] and 10 to 100 nM (read-out: Btk (IC50)).

With `NC(=O)c1nnc(N2CCC[C@@H](NC(=O)c3ccc(Oc4ccccc4)cc3)C2)nc1Nc1ccc(C(=O)N2CCOCC2)cc1` [Example 96, (R)-5-(4-(morpholine-4-carbonyl)phenylamino)-3-(3-(4-phenoxybenzamido)piperidin-1-yl)-1,2,4-triazine-6-carboxamide], the IC50 under setting [1] lay within 10 to 100 nM.

With `NC(=O)c1nnc(N2CCC[C@@H](NC(=O)c3nc4ccccc4o3)C2)nc1Nc1ccc(C(=O)N2CCOCC2)cc1` [Example 97, (R)—N-(1-(6-carbamoyl-5-(4-(morpholine-4-carbonyl)phenylamino)-1,2,4-triazin-3-yl)piperidin-3-yl)benzo[d]oxazole-2-carboxamide], the IC50 runs as follows: under setting [1], 10 to 100 nM; (read-out: Btk (IC50)) 10 to 100 nM.

In the case of `CCN(CC)C(=O)N[C@@H]1CCCN(c2nnc(C(N)=O)c(Nc3ccc(C(=O)N4CCOCC4)cc3)n2)C1` [Example 99, (R)-3-(3-(3,3-diethylureido)piperidin-1-yl)-5-(4-(morpholine-4-carbonyl)phenylamino)-1,2,4-triazine-6-carboxamide], the IC50 (read-out: Btk (IC50)) was under 10 nM.

In the case of `NC(=O)c1nnc(N2CCC[C@@H](NC(=O)c3ccc4c(c3)nnn4C3CC3)C2)nc1Nc1ccc(C(=O)N2CCOCC2)cc1` [Example 102, (R)—N-(1-(6-carbamoyl-5-(4-(morpholine-4-carbonyl)phenylamino)-1,2,4-triazin-3-yl)piperidin-3-yl)-1-cyclopropyl-1H-benzo[d][1,2,3]triazole-5-carboxamide], the IC50 is, setting by setting: under setting [1], under 10 nM; (read-out: Btk (IC50)) under 10 nM.

In the case of `CCCn1nnc2cc(C(=O)N[C@@H]3CCCN(c4nnc(C(N)=O)c(Nc5ccc(C(=O)N6CCOCC6)cc5)n4)C3)ccc21` [Example 103, (R)—N-(1-(6-carbamoyl-5-(4-(morpholine-4-carbonyl)phenylamino)-1,2,4-triazin-3-yl)piperidin-3-yl)-1-propyl-1H-benzo[d][1,2,3]triazole-5-carboxamide], the IC50 was under 10 nM under setting [1] and 10 to 100 nM (read-out: Btk (IC50)).

Take `NC(=O)c1nnc(N2CCC[C@@H](N3Cc4ccccc4C3=O)C2)nc1Nc1ccc(C(=O)N2CCOCC2)cc1` [Example 104, (R)-5-(4-(morpholine-4-carbonyl)phenylamino)-3-(3-(1-oxoisoindolin-2-yl)piperidin-1-yl)-1,2,4-triazine-6-carboxamide]: the IC50 under setting [1] is 10 to 100 nM.

As to `CC#CC(=O)N1CCC[C@@H](Nc2nnc(C(N)=O)c(Nc3ccc(S(C)(=O)=O)cc3)n2)C1` [Example 105, (R)-3-(1-but-2-ynoylpiperidin-3-ylamino)-5-(4-(methylsulfonyl)phenylamino)-1,2,4-triazine-6-carboxamide], the IC50 under setting [1] was under 10 nM.

As to `CN(C)C/C=C/C(=O)N1CCC[C@@H](Nc2nnc(C(N)=O)c(Nc3ccc(S(C)(=O)=O)cc3)n2)C1` [Example 106, (R,E)-3-(1-(4-(dimethylamino)but-2-enoyl)piperidin-3-ylamino)-5-(4-(methylsulfonyl)phenylamino)-1,2,4-triazine-6-carboxamide], the IC50 under setting [1] is under 10 nM.

`CN(C/C=C/C(=O)N1CCC[C@@H](Nc2nnc(C(N)=O)c(Nc3ccc(S(C)(=O)=O)cc3)n2)C1)C1CC1` [Example 107, (R,E)-3-(1-(4-(cyclopropyl(methyl)amino)but-2-enoyl)piperidin-3-ylamino)-5-(4-(methylsulfonyl)phenylamino)-1,2,4-triazine-6-carboxamide]: the IC50 under setting [1] was under 10 nM.

`NC(=O)c1nnc(N2CCC[C@@H](NC(=O)N3CCCCC3)C2)nc1Nc1cnc2ccccc2c1` [Example 108, (R)-3-(3-(piperidine-1-carboxamido)piperidin-1-yl)-5-(quinolin-3-ylamino)-1,2,4-triazine-6-carboxamide]: under setting [1], the IC50 fell in the range of 100 to 1000 nM.

Take `NC(=O)c1nnc(N2CCC[C@@H](NC(=O)N3CCCCC3)C2)nc1Nc1ccc2cccnc2c1` [Example 109, (R)-3-(3-(piperidine-1-carboxamido)piperidin-1-yl)-5-(quinolin-7-ylamino)-1,2,4-triazine-6-carboxamide]: the IC50 under setting [1] was 100 to 1000 nM.

Take `CCOc1ccc(Nc2nc(N3CCC[C@@H](NC(=O)c4ccc(OC)cc4)C3)cnc2C(N)=O)cc1` [Example 111, (R)-3-(4-ethoxyphenylamino)-5-(3-(4-methoxybenzamido)piperidin-1-yl)pyrazine-2-carboxamide]: the IC50 runs as follows: under setting [1], 10 to 100 nM; (read-out: Btk (IC50)) 10 to 100 nM.

Regarding `COCCOc1ccc(Nc2nc(N3CCC[C@@H](NC(=O)c4ccc(OC)cc4)C3)cnc2C(N)=O)cc1` [Example 112, (R)-5-(3-(4-methoxybenzamido)piperidin-1-yl)-3-(4-(2-methoxyethoxy)phenylamino)pyrazine-2-carboxamide], the IC50 under setting [1] was 10 to 100 nM and the IC50 (read-out: Btk (IC50)) was in the range of 10 to 100 nM.

Take `CCOCCOc1ccc(Nc2nc(N3CCC[C@@H](NC(=O)c4ccc(OC)cc4)C3)cnc2C(N)=O)cc1` [Example 113, (R)-3-(4-(2-ethoxyethoxy)phenylamino)-5-(3-(4-methoxybenzamido)piperidin-1-yl)pyrazine-2-carboxamide]: the IC50 under setting [1] was 10 to 100 nM.

On to `COc1ccc(C(=O)N[C@@H]2CCCN(c3cnc(C(N)=O)c(Nc4ccc(OCCN(C)C)cc4)n3)C2)cc1` [Example 115, (R)-3-(4-(2-(dimethylamino)ethoxy)phenylamino)-5-(3-(4-methoxybenzamido)piperidin-1-yl)pyrazine-2-carboxamide], for which the IC50 under setting [1] is under 10 nM.

For `COc1ccc(C(=O)N[C@@H]2CCCN(c3cnc(C(N)=O)c(Nc4ccc(OCC[N+](C)(C)[O-])cc4)n3)C2)cc1` [Example 116, (R)-2-(4-(3-carbamoyl-6-(3-(4-methoxybenzamido)piperidin-1-yl)pyrazin-2-ylamino)phenoxy)-N,N-dimethylethanamine oxide], the IC50 under setting [1] was in the range of 10 to 100 nM.

For `COc1ccc(C(=O)N[C@@H]2CCCN(c3cnc(C(N)=O)c(Nc4ccc(S(C)(=O)=O)cc4)n3)C2)cc1` [Example 117, (R)-5-(3-(4-methoxybenzamido)piperidin-1-yl)-3-(4-(methylsulfonyl)phenylamino)pyrazine-2-carboxamide], the IC50 under setting [1] was under 10 nM.

As to `COc1ccc(C(=O)N[C@@H]2CCCN(c3cnc(C(N)=O)c(Nc4ccc(C(=O)N(C)C)cc4)n3)C2)cc1` [Example 118, (R)-3-(4-(dimethylcarbamoyl)phenylamino)-5-(3-(4-methoxybenzamido)piperidin-1-yl)pyrazine-2-carboxamide], the IC50 lay within 10 to 100 nM under setting [1] and 10 to 100 nM (read-out: Btk (IC50)).

Regarding `COc1ccc(C(=O)N[C@@H]2CCCN(c3cnc(C(N)=O)c(Nc4cc(C)ns4)n3)C2)cc1` [Example 119, (R)-5-(3-(4-methoxybenzamido)piperidin-1-yl)-3-(3-methylisothiazol-5-ylamino)pyrazine-2-carboxamide], the IC50 under setting [1] fell in the range of 10 to 100 nM.

As to `COc1ccc(C(=O)N[C@@H]2CCCN(c3cnc(C(N)=O)c(Nc4ccc5ncccc5c4)n3)C2)cc1` [Example 120, (R)-5-(3-(4-methoxybenzamido)piperidin-1-yl)-3-(quinolin-6-ylamino)pyrazine-2-carboxamide], the IC50 reads like this: under setting [1], 10 to 100 nM; (read-out: Btk (IC50)) 10 to 100 nM.

On to `COc1ccc(C(=O)N[C@@H]2CCCN(c3cnc(C(N)=O)c(Nc4ccc5ncsc5c4)n3)C2)cc1` [Example 121, (R)-3-(benzo[d]thiazol-6-ylamino)-5-(3-(4-methoxybenzamido)piperidin-1-yl)pyrazine-2-carboxamide], for which the IC50 fell in the range of 10 to 100 nM under setting [1] and 10 to 100 nM (read-out: Btk (IC50)).

As for `COc1ccc(C(=O)N[C@@H]2CCCN(c3cnc(C(N)=O)c(Nc4ccc(C5CCOCC5)cc4)n3)C2)cc1` [Example 122, (R)-5-(3-(4-methoxybenzamido)piperidin-1-yl)-3-(4-(tetrahydro-2H-pyran-4-yl)phenylamino)pyrazine-2-carboxamide], the IC50 under setting [1] is under 10 nM.

As usually defined, the IC50 is the concentration at which inhibition is half-maximal.
